What was measured:
BDF1 mice = test: Toxicity to BDF1 mice, ip twice daily for five days; format: in vivo; details: 75 mg/kg/dose ip twice daily for five days
From the text: 10^6 Leukemia P388 cells were implanted ip to BDF1 mice obtained from Southern Research Institute, Alabama.

CCRF-CEM = test: NCI cancer screening program, SRB: CCRF-CEM; format: cell-based; details: Leukemia, log10 concentration at PG +50, 48 hours
RL-60(TB) = test: NCI cancer screening program, SRB: RL-60(TB); format: cell-based
K-562 = test: NCI cancer screening program, SRB: K-562; format: cell-based; details: Leukemia, PG +50, 48 hours
BSOLT-4 = test: NCI cancer screening program, SRB: BSOLT-4; format: cell-based; details: Leukemia, PG +50, 48 hours
HOP-62 = test: NCI cancer screening program, SRB: HOP-62; format: cell-based; details: Non-Small Cell Lung Cancer, PG +50, 48 hours
NCI-H460 = test: NCI cancer screening program, SRB: NCI-H460; format: cell-based; details: Non-Small Cell Lung Cancer, PG +50, 48 hours
NCI-H522 = test: NCI cancer screening program, SRB: NCI-H522; format: cell-based; details: Non-Small Cell Lung Cancer, PG +50, 48 hours
SNB-19 = test: NCI cancer screening program, SRB: SNB-19; format: cell-based; details: CNS Cancer, PG +50, 48 hours
U251 = test: NCI cancer screening program, SRB: U251; format: cell-based; details: CNS Cancer, PG +50, 48 hours
LOX D6VI = test: NCI cancer screening program, SRB: LOX D6VI; format: cell-based; details: Melanoma
SK-MEL-5 = test: NCI cancer screening program, SRB: SK-MEL-5; format: cell-based; details: Melanoma, PG +50, 48 hours
UACC-257 = test: NCI cancer screening program, SRB: UACC-257; format: cell-based; details: Melanoma, PG +50, 48 hours
UACC-62 = test: NCI cancer screening program, SRB: UACC-62; format: cell-based; details: Melanoma, PG +50, 48 hours
OVCAR-3 = test: NCI cancer screening program, SRB: OVCAR-3; format: cell-based; details: Ovarian Cancer
OVCAR-4 = test: NCI cancer screening program, SRB: OVCAR-4; format: cell-based; details: Ovarian Cancer, PG +50, 48 hours
CAKI-1 = test: NCI cancer screening program, SRB: CAKI-1; format: cell-based; details: Renal Cancer, PG +50, 48 hours
UO-31 = test: NCI cancer screening program, SRB: UO-31; format: cell-based; details: Renal Cancer, PG +50, 48 hours
DU-145 = test: NCI cancer screening program, SRB: DU-145; format: cell-based; details: Prostate Cancer, PG +50, 48 hours
HS578T = test: NCI cancer screening program, SRB: HS578T; format: cell-based; details: Breast Cancer, PG +50, 48 hours
[1] = system: KB nasopharyngeal carcinoma cell line; test: In vitro cytotoxicity, methylene blue assay / cell count: KB; format: cell-based; details: three generations, mean ± standard deviation of five experiments, read-out: ID50 (the source's name)
[2] = system: DU-145 prostate carcinoma line; test: In vitro cytotoxicity, methylene blue assay / cell count: DU-145; format: cell-based; details: Homo sapiens, read-out: ID50 (the source's name)
tumor cell lines tested = test: In vitro cytotoxicity, statement on all tumor cell lines tested; format: cell-based; details: all of the tumor cell lines tested
HepG2 tumors = test: HepG2 xenograft in NCr nude mice; format: in vivo, human; details: for Effect on HepG2 tumors in words: 25 mg/kg twice a day on days 0 through 4, NCr nude mice; for Net cell kill (log 10): HepG2 tumors, 25 mg/kg twice a day days 0 through 4
Method: FIG. 5 is a graph of the inhibition of human tumor growth by […]. Three to six week old NCr nude mice were inoculated subcutaneously in each flank with 2×10^6 HepG2 or DU-145 cells. Treatment was started when the tumors were in an advanced stage of growth. Drugs were administered twice a day on days 0 through 4 and tumor sizes were measured on the indicated days. […] Each data point represents the means±SD of 10 tumors in graph A and six tumors in graph B.
Three to six-week-old NCr nude mice (Taconic Immunodeficient Mice and Rats) were inoculated s.c. in each flank with 2×10^6HepG2 or DU-145 cells and tumors were allowed to grow. Treatment was started when the tumors were 100-250mg as determined by caliper measurement and calculated according to the formula:
Tumor Weight(mg)=length(mm)×width(mm^2)÷2
Drugs were given at the indicated doses on days 0 through 4 and tumor sizes were measured every several days. The tumor growth curves were generated as described in Bell, et al., Cancer(phila.) 36:2437-2440 (1975), and are illustrated in FIGS. 5(a) and 5(b).

[3] = target: human deoxycytidine kinase (Homo sapiens, UniProt P27707); test: In vitro enzymatic studies of phosphorylation; format: biochemical
K2112 = details: Colon Cancer
From the text: (§1) GI50, TGI and LC50 are values representing the concentrations at which the PG (percent of growth inhibition), defined below, is +50, 0, and −50, respectively.
(§2) If (Mean ODtest−Mean ODtzero)≧0. then PG=100×(Mean ODtest−Mean ODtzero)/(Mean ODctrl−Mean ODtzero)
(§3) If (Mean ODtest−Mean ODtzero)<0. then PG=100×(Mean ODtest−Mean ODtzero)/(Mean ODtzero)
(§4) Mean ODtzero=The average of optical density measurements of SRB-derived color just before exposure of cells to the test compound.
(§5) Mean ODtestThe average of optical density measurements of SRB-derived color after 48 hours exposure of cells to the test compound.
(§6) Mean ODctrl=The average of optical density measurements of SRB-derived color after 48 hours with no exposure of cells to the test compound.
(§7) If these response parameters could not be obtained by interpolation, the value given for each response parameter is the highest concentration tested and is preceded by a “>” sign.

A549/ATCC = test: NCI cancer screening program, SRB: A549/ATCC; details: Non-Small Cell Lung Cancer, PG +50, 48 hours
From the text: as §1, §2, §3, §4, §5, §6, §7

Sequence of human deoxycytidine kinase (P27707 whole entry): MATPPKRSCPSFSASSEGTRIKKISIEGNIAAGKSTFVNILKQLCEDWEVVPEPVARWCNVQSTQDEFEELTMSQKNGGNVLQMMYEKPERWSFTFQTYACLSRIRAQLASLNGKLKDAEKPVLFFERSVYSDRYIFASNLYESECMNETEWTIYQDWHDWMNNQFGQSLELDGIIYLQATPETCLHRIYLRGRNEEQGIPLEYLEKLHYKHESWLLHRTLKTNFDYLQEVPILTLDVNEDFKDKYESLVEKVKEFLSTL

Compound: Nc1ccn([C@@H]2CO[C@H](CO)O2)c(=O)n1 [(−)-OddC, (−)-(2S,4S)-1-(2-hydroxymethyl-1,3-dioxolan-4-yl)cytosine]
- Toxicity to the mice (BDF1 mice): toxic
- Log10GI50 (CCRF-CEM): −6.64
- Log10GI50 (RL-60(TB)): −6.28
- Log10GI50 (K-562): −4.59
- Log10GI50 (BSOLT-4): −6.66
- Log10GI50 (HOP-62): −6.23
- Log10GI50 (NCI-H460): −4.32
- Log10GI50 (NCI-H522): −6.06
- Log10GI50 (SNB-19): −5.71
- Log10GI50 (U251): −4.91
- Log10TGI (LOX D6VI; PG 0, 48 hours): >−4.00
- Log10GI50 (LOX D6VI; PG +50, 48 hours): −6.39
- Log10GI50 (SK-MEL-5): −4.91
- LOG10GI50 (UACC-257): >−4.00
- LOG10GI50 (UACC-62): −5.53
- LOG10TGI (OVCAR-3; PG 0, 48 hours): >−4.00
- LOG10GI50 (OVCAR-3; PG +50, 48 hours): −4.44
- LOG10GI50 (OVCAR-4): >−4.00
- LOG10GI50 (CAKI-1): −6.65
- LOG10GI50 (UO-31): −5.60
- LOG10GI50 (DU-145): −6.97
- LOG10GI50 (HS578T): >−4.00
- IC50 [1]: 48 ± 21 nM
- IC50 [2]: 24 ± 20 nM
- Cytotoxicity in words (tumor cell lines tested): more cytotoxic than AraC
- Effect on HepG2 tumors in words (HepG2 tumors): active
- Effect on HepG2 tumors in words (HepG2 tumors; listed as (L)-OddC): effective
- Net cell kill (log 10) (HepG2 tumors; i.p. treatment): 0.67
- Net cell kill (log 10) (HepG2 tumors; oral treatment): 0.87
- Phosphorylation by human deoxycytidine kinase [3]: can be phosphorylated
- Log10TGI (K2112; PG 0, 48 hours): >−4.00
- Log10GI50 (K2112; PG +50, 48 hours): >−4.00
- Log10GI50 (A549/ATCC): −6.01
